Drawing on ChEMBL document CHEMBL4483862, “Open-source discovery of chemical leads for next-generation chemoprotective antimalarials” (2018), this text covers IC50 and IC90 for 37 compounds.

Structures are written as SMILES.

In the assay the test system is Plasmodium berghei. The assay can be described thus: Luciferase/luciferin-expressing antifolate-resistant parasites were used to infect a culture of HepG2 cells that were pre-incubated with compounds. Infected hepatocytes emit light due to the luciferase reaction. Assay results are presented as the percent inhibition of light emission compared to control. […]. The assay is classed as functional. Particulars: sporozoite; for IC90: read-out: LUCIFERASE INFECTION ASSAY - IC90.

For `Cc1cc(N)c(N)cc1C`, the IC90 was determined as 6.18 µM. In addition, the IC50 (PBLUC_HILL_SLOPE 0.927, PBLUC_R_SQUARED 0.706, read-out: LUCIFERASE INFECTION ASSAY - IC50) worked out at 577 nM.

On to `CCOCc1c(C(=O)Nc2ccccc2N2CCN(C)CC2)oc2ccccc12`, for which the IC90 turned out to be 7.05 µM. In addition, the IC50 (PBLUC_HILL_SLOPE 0.969, 2.85, PBLUC_R_SQUARED 0.516, 0.696, read-out: LUCIFERASE INFECTION ASSAY - IC50) amounted to 2840 nM.

Turning to `Cc1cc(C)nc(-n2[nH]c(C)c(Cc3ccc(C(C)(C)C)cc3)c2=O)n1`, the IC90 was > 9.42 µM. For the same compound, under “PBLUC_HILL_SLOPE 0.924, PBLUC_R_SQUARED 0.378, read-out: LUCIFERASE INFECTION ASSAY - IC50”, the IC50 was 1030 nM.

On to `CC(=O)N1CCc2cc(S(=O)(=O)Nc3ccc(Cl)cc3)ccc21`, for which the IC90 was > 9.41 µM. Further, the concentration for half-maximal inhibition (IC50) (PBLUC_HILL_SLOPE 0.924, PBLUC_R_SQUARED 0.105, read-out: LUCIFERASE INFECTION ASSAY - IC50) is > 9410 nM.

Regarding `O=[N+]([O-])c1cc(/C=C/c2nc3ccccc3s2)ccc1N1CCOCC1`, the IC90 is > 10 µM. Further, for the setting “PBLUC_HILL_SLOPE 0.872, PBLUC_R_SQUARED 0.699, read-out: LUCIFERASE INFECTION ASSAY - IC50”, the concentration for half-maximal inhibition (IC50) stood at 1400 nM.

In the case of `Cc1ccccc1-n1nnc(C(=O)Nc2cccc(Br)c2)c1N`, the IC90 was 4.24 µM. The IC50 (PBLUC_HILL_SLOPE 0.945, PBLUC_R_SQUARED 0.824, read-out: LUCIFERASE INFECTION ASSAY - IC50) came out at 414 nM.

Take `CCC(C)(C)c1ccc(Oc2ccc(NC(=O)COC(=O)c3cc(-c4cc(OC)c(OC)c(OC)c4)nc4ccccc34)cc2)cc1`: the concentration for an effect of 90% (IC90) was > 10 µM. The IC50 (PBLUC_HILL_SLOPE 0.863, PBLUC_R_SQUARED 0.508, read-out: LUCIFERASE INFECTION ASSAY - IC50) worked out at 2170 nM.

Consider `CCCOc1ccc(C(F)(F)F)cc1NC(=O)c1nc2nccc(C)n2n1`, for which the IC90 is 3 µM. The IC50 (PBLUC_HILL_SLOPE 0.895, PBLUC_R_SQUARED 0.844, read-out: LUCIFERASE INFECTION ASSAY - IC50) came to 258 nM.

With `CCCn1c(=O)n(CC(=O)Nc2ccc(C)c(C)c2)c(=O)c2c1nc(C(F)(F)F)n2CCOC`, the IC90 was > 10 µM. Further, the IC50 (PBLUC_HILL_SLOPE 0.949, PBLUC_R_SQUARED 0.63, read-out: LUCIFERASE INFECTION ASSAY - IC50) was found to be 1570 nM.

In the case of `Cc1nn(-c2ccccc2)c2c1C1(C(=O)Nc3ccccc31)N1N=NN(c3ccccc3)C1=N2` (centres undefined), the IC90 is > 10 µM. For the same compound, the IC50 (PBLUC_HILL_SLOPE 0.947, PBLUC_R_SQUARED 0.0755, read-out: LUCIFERASE INFECTION ASSAY - IC50) is > 10000 nM.

For `CN(C)CCNc1ccnc2c(-c3ccc4ccccc4c3)cnn12`, the IC90 was > 9.96 µM. The half-maximal inhibitory concentration (IC50) (PBLUC_HILL_SLOPE 0.931, PBLUC_R_SQUARED 0.843, read-out: LUCIFERASE INFECTION ASSAY - IC50) turned out to be 1060 nM.

Turning to `COc1cccc(-c2nc3ccc(NC(=O)CC(C)(C)C)cn3n2)c1`, the IC90 is > 10 µM. In addition, where the note is “PBLUC_HILL_SLOPE 0.895, PBLUC_R_SQUARED 0.614, read-out: LUCIFERASE INFECTION ASSAY - IC50”, the half-inhibitory concentration (IC50) was 974 nM.

As to `COc1cccc(Nc2nccc3c2cc(-c2cccc(OC)c2)n3C)c1`, the IC90 was > 10 µM. Besides, the IC50 (PBLUC_HILL_SLOPE 0.902, PBLUC_R_SQUARED 0.605, read-out: LUCIFERASE INFECTION ASSAY - IC50) amounted to 2590 nM.

Regarding `COc1cccc(NC(=O)c2cc(C)n(Cc3cccs3)c2C)c1`, the IC90 is > 9.69 µM. The IC50 (PBLUC_HILL_SLOPE 0.906, PBLUC_R_SQUARED 0.33, read-out: LUCIFERASE INFECTION ASSAY - IC50) was 6440 nM.

Take `CCc1cccc2c(/C=C(\C#N)C(=O)C(C)(C)C)c[nH]c12`: the IC90 was > 10 µM. Also, the IC50 (PBLUC_HILL_SLOPE 0.872, PBLUC_R_SQUARED 0.606, read-out: LUCIFERASE INFECTION ASSAY - IC50) is 6240 nM.

On to `Clc1ccc(/C=C/c2cnc3ccccc3n2)cc1`, for which the IC90 was > 12.4 µM. Besides, under “PBLUC_HILL_SLOPE 0.854, PBLUC_R_SQUARED 0.483, read-out: LUCIFERASE INFECTION ASSAY - IC50”, the IC50 amounted to 2040 nM.

Consider `Cc1ccc(NC(=O)c2cc3c(s2)CCCCCC3)nc1`, for which the IC90 was found to be 5.93 µM. For the setting “PBLUC_HILL_SLOPE 0.925, PBLUC_R_SQUARED 0.636, read-out: LUCIFERASE INFECTION ASSAY - IC50”, the IC50 came out at 551 nM.

Consider `CC(C)Cc1ccc(C(C)NC(=O)c2ccc(CN3CCCC3)cc2)cc1` (centres undefined), for which the IC90 is > 10 µM. Further, for the setting “PBLUC_HILL_SLOPE 0.907, PBLUC_R_SQUARED 0.512, read-out: LUCIFERASE INFECTION ASSAY - IC50”, the IC50 is 2160 nM.

For `Cc1ccc(/C=C2\CCc3c2nc2ccccc2c3C(=O)OCc2cccc(S(=O)(=O)N(C)C)c2)cc1`, the IC90 was > 10 µM. The IC50 (PBLUC_HILL_SLOPE 0.892, PBLUC_R_SQUARED 0.634, read-out: LUCIFERASE INFECTION ASSAY - IC50) worked out at 1200 nM.

Turning to `CN1CCN(c2ccc(NC(=O)c3csc4c3CCCC4)cc2)CC1`, the IC90 was determined as 4.98 µM. The IC50 (PBLUC_HILL_SLOPE 0.882, PBLUC_R_SQUARED 0.629, read-out: LUCIFERASE INFECTION ASSAY - IC50) came to 413 nM.

With `S=c1sc(Nc2ccc(Oc3ccccc3)cc2)nn1CN1CCN(c2ncccn2)CC1`, the IC90 was > 10 µM. For the same compound, the IC50 (PBLUC_HILL_SLOPE 0.972, PBLUC_R_SQUARED 0.697, read-out: LUCIFERASE INFECTION ASSAY - IC50) amounted to 3610 nM.

Consider `CCn1c(NC(=O)c2csc(Br)c2)nc2ccccc21`, for which the IC90 was > 10 µM. Besides, the IC50 (PBLUC_HILL_SLOPE 0.956, PBLUC_R_SQUARED 0.162, read-out: LUCIFERASE INFECTION ASSAY - IC50) is 5440 nM.

Turning to `CC(C)(C)c1ccc(C(=O)Nc2cc(F)ccc2F)s1`, the IC90 is 0.55 µM. Moreover, the IC50 (PBLUC_HILL_SLOPE 0.906, PBLUC_R_SQUARED 0.913, read-out: LUCIFERASE INFECTION ASSAY - IC50) is 48.7 nM.

`Cc1cc(C(=O)NCCSc2ccccc2)c(C)n1C(C)C`: the IC90 amounted to 6.44 µM. Besides, the IC50 (PBLUC_HILL_SLOPE 0.93, PBLUC_R_SQUARED 0.762, read-out: LUCIFERASE INFECTION ASSAY - IC50) came to 607 nM.

As to `O=C(Nc1ccc(Cl)c(Cl)c1)Nc1ccnn1C1CCCCC1`, the IC90 is > 10 µM. Further, the IC50 (PBLUC_HILL_SLOPE 0.873, PBLUC_R_SQUARED 0.34, read-out: LUCIFERASE INFECTION ASSAY - IC50) was > 10000 nM.

With `O=C(NC1CCN(c2nccc(C(F)(F)F)n2)CC1)c1ccco1`, the IC90 is > 9.7 µM. Further, the IC50 (PBLUC_HILL_SLOPE 0.897, PBLUC_R_SQUARED 0.83, read-out: LUCIFERASE INFECTION ASSAY - IC50) was 2600 nM.

For the compound `Cc1ccc2c(c1)C1CN(C)CCC1N2C(=O)c1cc2c(s1)CCCC2` (centres undefined), the concentration for an effect of 90% (IC90) was > 10 µM. In addition, the half-inhibitory concentration (IC50) (PBLUC_HILL_SLOPE 0.917, 1.13, PBLUC_R_SQUARED 0.241, 0.572, read-out: LUCIFERASE INFECTION ASSAY - IC50) stood at 2930 nM.

`C=C1SC(Nc2cc(C)cc(C)c2)=NC1(C)C`: the 90% effect concentration (IC90) is > 13.4 µM. For the same compound, the 50% inhibitory concentration (IC50) (PBLUC_HILL_SLOPE 0.95, PBLUC_R_SQUARED 0.559, read-out: LUCIFERASE INFECTION ASSAY - IC50) was > 13400 nM.

For the compound `Cc1cc(C(=O)C(C)Sc2nnnn2C2CC2)c(C)n1-c1ccccc1` (centres undefined), the IC90 is 7.24 µM. In addition, the IC50 (PBLUC_HILL_SLOPE 0.896, PBLUC_R_SQUARED 0.762, read-out: LUCIFERASE INFECTION ASSAY - IC50) stood at 623 nM.

`CC(C)(C)c1ccc(NC(=O)c2ccc[nH]c2=S)cc1`: the 90% effect concentration (IC90) was 0.656 µM. Under “PBLUC_HILL_SLOPE 0.943, PBLUC_R_SQUARED 0.946, read-out: LUCIFERASE INFECTION ASSAY - IC50”, the IC50 came out at 63.8 nM.

Consider `O=C(CCOc1ccc(F)cc1)Nc1cc(Cl)cc(Cl)c1`, for which the IC90 is > 10.1 µM. The IC50 (PBLUC_HILL_SLOPE 0.967, PBLUC_R_SQUARED 0.399, read-out: LUCIFERASE INFECTION ASSAY - IC50) is > 10100 nM.

In the case of `Cc1cc(C(=O)CN(C)S(=O)(=O)c2cccs2)c(C)n1-c1ccccn1`, the IC90 was > 10 µM. Also, the IC50 (PBLUC_HILL_SLOPE 0.948, PBLUC_R_SQUARED 0.586, read-out: LUCIFERASE INFECTION ASSAY - IC50) was found to be 2020 nM.

For the compound `CCOC(=O)CSCc1noc(COc2ccc(Cl)cc2Cl)n1`, the IC90 was determined as 0.26 µM. Where the note is “PBLUC_HILL_SLOPE 0.923, PBLUC_R_SQUARED 0.877, read-out: LUCIFERASE INFECTION ASSAY - IC50”, the IC50 worked out at 24.1 nM.

`CN(Cc1nc2ccccc2s1)Cn1cnc2c(=O)n(C)c(=O)n(C)c21`: the IC90 is > 10 µM. The IC50 (PBLUC_HILL_SLOPE 0.862, PBLUC_R_SQUARED 0.121, read-out: LUCIFERASE INFECTION ASSAY - IC50) was 9690 nM.

Turning to `CN(c1ccccc1)c1nnc(C(O)c2ccc3ccccc3c2)s1` (centres undefined), the IC90 is > 10 µM. For the same compound, the IC50 (PBLUC_HILL_SLOPE 0.974, PBLUC_R_SQUARED 0.604, read-out: LUCIFERASE INFECTION ASSAY - IC50) came out at 3520 nM.

As for `Cc1ccc(/C=C/C(=O)NC2=NCCS2)c(Br)c1`, the concentration for an effect of 90% (IC90) was > 10 µM. For the same compound, where the note is “PBLUC_HILL_SLOPE 0.976, PBLUC_R_SQUARED 0.447, read-out: LUCIFERASE INFECTION ASSAY - IC50”, the IC50 was determined as 3480 nM.

With `OC(CNC1CCN(Cc2ccccc2)CC1)COc1ccc(OC(F)(F)F)cc1` (centres undefined), the IC90 is > 7.77 µM. Besides, under “PBLUC_HILL_SLOPE 0.955, PBLUC_R_SQUARED 0.217, read-out: LUCIFERASE INFECTION ASSAY - IC50”, the IC50 was > 7770 nM.

In general, IC50 refers to the concentration that gives 50% inhibition. Broadly, the IC90 is the concentration at which the effect reaches the 90% level.
